# Measured values reported in patent US11903387B2 (priority 2016, dated 2024).
# Read-outs that look alike come from different tables or passages of the source.
# Tests used:
# [1] = test system: Pseudoperonospora cubensis; assay: Test 2: control effect against cucumber downy mildew; assay type: in vivo
# Phytophthora infestans = assay: whole plant or invertebrate; assay type: in vivo; conditions: for pest or weed control at 10 ppm: read-out: Test 1 preventive value, Measured, applied alone, 10 ppm; for pest or weed control at 50 ppm: read-out: Test 1 preventive value, Measured, applied alone, 50 ppm
# [2] = Pseudoperonospora cubensis, applied alone, 10 ppm, read-out: Test 2 preventive value, Measured
# [3] = Pseudoperonospora cubensis, applied alone, 50 ppm, read-out: Test 2 preventive value, Measured
# [4] = Phytophthora infestans, in Solanum lycopersicum
# [5] = component (b) alone 0.4 ppm, average of three repeats
# [6] = component (b) alone 2 ppm, average of three repeats
# [7] = component (b) alone 10 ppm, average of three repeats
# [8] = component (b) alone 0.08 ppm, average of three repeats
molecule,measurement,setting,value
C[C@@]1(c2ccc(Oc3ccccc3)cc2)OC(=O)N(Nc2ccccc2)C1=O (racemic) [Famoxadone],pest or weed control at 2 ppm,"[1]; Pseudoperonospora cubensis, applied alone, 2 ppm, read-out: Test 2 preventive value, Measured",0%
same,pest or weed control at 10 ppm,[1]; [2],0%
same,pest or weed control at 50 ppm,[1]; [3],0%
same,pest or weed control at 2 ppm,"Phytophthora infestans; Phytophthora infestans, in Solanum lycopersicum, read-out: Test 1 preventive value, Measured, applied alone, 2 ppm",0%
same,pest or weed control at 10 ppm,Phytophthora infestans; [4],0%
same,pest or weed control at 50 ppm,Phytophthora infestans; [4],10%
CCCC1COC(Cn2cncn2)(c2ccc(Cl)cc2Cl)O1 (centres unmarked) [Propiconazole],pest or weed control at 8 ppm,"[1]; Pseudoperonospora cubensis, component (b) alone 8 ppm, read-out: Test 2 Measured",0%
same,pest or weed control at 40 ppm,"[1]; Pseudoperonospora cubensis, component (b) alone 40 ppm, read-out: Test 2 Measured",7.5%
same,pest or weed control at 200 ppm,"[1]; Pseudoperonospora cubensis, component (b) alone 200 ppm, read-out: Test 2 Measured",57.5%
same,pest or weed control at 8 ppm,"Phytophthora infestans; Phytophthora infestans, in Solanum lycopersicum, read-out: Test 1 Measured, component (b) alone 8 ppm",0%
same,pest or weed control at 40 ppm,"Phytophthora infestans; Phytophthora infestans, in Solanum lycopersicum, read-out: Test 1 Measured, component (b) alone 40 ppm",35%
same,pest or weed control at 200 ppm,"Phytophthora infestans; Phytophthora infestans, in Solanum lycopersicum, read-out: Test 1 Measured, component (b) alone 200 ppm",53.3%
"CS(=O)(=O)Oc1ccc(F)c2c1COC(c1csc(C3CCN(C(=O)Cn4nc(C(F)F)cc4C(F)F)CC3)n1)OC2 (centres unmarked) [Compound 1-62, 4-[4-(6-fluoro-9-methylsulfonyloxy-1,5-dihydro-3H-2,4-benzodioxepin-3-yl)-2-thiazolyl]-1-[2-[3,5-bis(difluoromethyl)-1H-pyrazol-1-yl]acetyl]piperidine]",pest or weed control at 0.0024 ppm,"[1]; Pseudoperonospora cubensis, Compound 1-62 alone, 0.0024 ppm, read-out: Test 2 Measured",86%
same,pest or weed control at 0.012 ppm,"[1]; Pseudoperonospora cubensis, Compound 1-62 alone, 0.012 ppm, read-out: Test 2 Measured",100%
same,pest or weed control at 0.06 ppm,"[1]; Pseudoperonospora cubensis, Compound 1-62 alone, 0.06 ppm, read-out: Test 2 Measured",100%
same,pest or weed control at 0.0024 ppm,"Phytophthora infestans; Phytophthora infestans, in Solanum lycopersicum, read-out: Test 1 Measured, Compound 1-62 alone, 0.0024 ppm",59%
same,pest or weed control at 0.012 ppm,"Phytophthora infestans; Phytophthora infestans, in Solanum lycopersicum, read-out: Test 1 Measured, Compound 1-62 alone, 0.012 ppm",98%
same,pest or weed control at 0.06 ppm,"Phytophthora infestans; Phytophthora infestans, in Solanum lycopersicum, read-out: Test 1 Measured, Compound 1-62 alone, 0.06 ppm",100%
O=C(NCc1ncc(C(F)(F)F)cc1Cl)c1c(Cl)cccc1Cl [Fluopicolide],Test 2 Measured,"[1]; component (b) alone, 0.4 ppm",5
same,Test 2 Measured,"[1]; component (b) alone, 2 ppm",98.3
same,Test 2 Measured,"[1]; component (b) alone, 10 ppm",100
same,Test 1 Measured,"Phytophthora infestans; component (b) alone, 0.4 ppm",0.0
same,Test 1 Measured,"Phytophthora infestans; component (b) alone, 2 ppm",30.0
same,Test 1 Measured,"Phytophthora infestans; component (b) alone, 10 ppm",90.8
Propineb,Test 2 Measured,"[1]; component (b) alone, 2 ppm",17.5
same,Test 2 Measured preventive value,"[1]; component (b) alone, 2 ppm",7.5
same,Test 2 Measured,"[1]; component (b) alone, 10 ppm",95
same,Test 2 Measured preventive value,"[1]; component (b) alone, 10 ppm",94.3
same,Test 2 Measured,"[1]; component (b) alone, 50 ppm",100
same,Test 2 Measured preventive value,"[1]; component (b) alone, 50 ppm",100
same,Test 1 Measured,"Phytophthora infestans; component (b) alone, 2 ppm",0.0
same,Test 1 Measured preventive value,"Phytophthora infestans; component (b) alone, 2 ppm",0.0
same,Test 1 Measured,"Phytophthora infestans; component (b) alone, 10 ppm",36.1
same,Test 1 Measured preventive value,"Phytophthora infestans; component (b) alone, 10 ppm",48.3
same,Test 1 Measured,"Phytophthora infestans; component (b) alone, 50 ppm",99.0
same,Test 1 Measured preventive value,"Phytophthora infestans; component (b) alone, 50 ppm",98.3
COC(=O)CC(NC(=O)[C@@H](NC(=O)OC(C)C)C(C)C)c1ccc(Cl)cc1 (some centres unmarked) [Valifenalate],Test 2 Measured preventive value,[1]; [5],0
same,Test 2 Measured preventive value,[1]; [6],57.5
same,Test 2 Measured preventive value,[1]; [7],93.5
same,Test 2 Measured,"[1]; component (b) alone, 0.4 ppm",4
same,Test 2 Measured preventive value,"[1]; component (b) alone, 0.4 ppm",0
same,Test 2 Measured,"[1]; component (b) alone, 2 ppm",51.8
same,Test 2 Measured preventive value,"[1]; component (b) alone, 2 ppm",57.5
same,Test 2 Measured,"[1]; component (b) alone, 10 ppm",93
same,Test 2 Measured preventive value,"[1]; component (b) alone, 10 ppm",93.5
same,Test 1 Measured preventive value,Phytophthora infestans; [5],20.0
same,Test 1 Measured preventive value,Phytophthora infestans; [6],51.7
same,Test 1 Measured preventive value,Phytophthora infestans; [7],96.2
same,Test 1 Measured,"Phytophthora infestans; component (b) alone, 0.4 ppm",10.0
same,Test 1 Measured preventive value,"Phytophthora infestans; component (b) alone, 0.4 ppm",20.0
same,Test 1 Measured,"Phytophthora infestans; component (b) alone, 2 ppm",45.2
same,Test 1 Measured preventive value,"Phytophthora infestans; component (b) alone, 2 ppm",51.7
same,Test 1 Measured,"Phytophthora infestans; component (b) alone, 10 ppm",97.0
same,Test 1 Measured preventive value,"Phytophthora infestans; component (b) alone, 10 ppm",96.2
C#CCOc1ccc(CCNC(=O)C(OCC#C)c2ccc(Cl)cc2)cc1OC (centres unmarked) [Mandipropamid],Test 2 Measured preventive value,[1]; [8],5
same,Test 2 Measured preventive value,[1]; [5],89.5
same,Test 2 Measured preventive value,[1]; [6],95
same,Test 2 Measured,"[1]; component (b) alone, 0.08 ppm",12
same,Test 2 Measured preventive value,"[1]; component (b) alone, 0.08 ppm",5
same,Test 2 Measured,"[1]; component (b) alone, 0.4 ppm",88.3
same,Test 2 Measured preventive value,"[1]; component (b) alone, 0.4 ppm",89.5
same,Test 2 Measured,"[1]; component (b) alone, 2 ppm",95
same,Test 2 Measured preventive value,"[1]; component (b) alone, 2 ppm",95
same,Test 1 Measured preventive value,Phytophthora infestans; [8],36.7
same,Test 1 Measured preventive value,Phytophthora infestans; [5],95.5
same,Test 1 Measured preventive value,Phytophthora infestans; [6],100.0
same,Test 1 Measured,"Phytophthora infestans; component (b) alone, 0.08 ppm",40.0
same,Test 1 Measured preventive value,"Phytophthora infestans; component (b) alone, 0.08 ppm",36.7
same,Test 1 Measured,"Phytophthora infestans; component (b) alone, 0.4 ppm",94.0
same,Test 1 Measured preventive value,"Phytophthora infestans; component (b) alone, 0.4 ppm",95.5
same,Test 1 Measured,"Phytophthora infestans; component (b) alone, 2 ppm",100.0
same,Test 1 Measured preventive value,"Phytophthora infestans; component (b) alone, 2 ppm",100.0
COc1ccc(C(=CC(=O)N2CCOCC2)c2ccc(Cl)cc2)cc1OC [Dimethomorph],Test 2 Measured preventive value,"[1]; component (b) alone, 0.4 ppm",0
same,Test 2 Measured preventive value,"[1]; component (b) alone, 2 ppm",62.5
same,Test 2 Measured preventive value,"[1]; component (b) alone, 10 ppm",95.5
same,pest or weed control at 0.4 ppm,"Phytophthora infestans; Phytophthora infestans, in Solanum lycopersicum, read-out: Test 1 Measured preventive value, component (b) alone, 0.4 ppm",11.7%
same,pest or weed control at 2 ppm,"Phytophthora infestans; Phytophthora infestans, in Solanum lycopersicum, read-out: Test 1 Measured preventive value, component (b) alone, 2 ppm",26.7%
Cc1c(Br)c2ccc(F)cc2n1S(=O)(=O)c1ncn(S(=O)(=O)N(C)C)n1 [Amisulbrom],Test 2 Measured,"[1]; component (b) alone, 0.4 ppm",27.5
same,Test 2 Measured,"[1]; component (b) alone, 2 ppm",98.8
same,Test 2 Measured,"[1]; component (b) alone, 10 ppm",100
same,Test 1 Measured,"Phytophthora infestans; component (b) alone, 0.4 ppm",60
same,Test 1 Measured,"Phytophthora infestans; component (b) alone, 2 ppm",80
same,Test 1 Measured,"Phytophthora infestans; component (b) alone, 10 ppm",97
CC(C)CC(C)c1sccc1NC(=O)c1cn(C)nc1C(F)(F)F (centres unmarked) [Penthiopyrad],pest or weed control at 10 ppm,[1]; [2],0%
same,pest or weed control at 50 ppm,[1]; [3],0%
same,pest or weed control at 250 ppm,"[1]; Pseudoperonospora cubensis, applied alone, 250 ppm, read-out: Test 2 preventive value, Measured",27.5%
same,pest or weed control at 10 ppm,Phytophthora infestans; [4],0%
same,pest or weed control at 50 ppm,Phytophthora infestans; [4],0%
same,pest or weed control at 250 ppm,"Phytophthora infestans; Phytophthora infestans, in Solanum lycopersicum, read-out: Test 1 preventive value, Measured, applied alone, 250 ppm",0%
